For the test, the system named is rat basophil leukemia cells (line RBL-2H3). Description: Histamine release from calcium ionophore A23187-stimulated RBL-2H3 cells (Histamine ELISA). The format is cell-based. The settings on record: Calcium Ionophore 2 μM, supernatant histamine by ELISA. As to the method:
Citrus Jabara extract was tested to determine its effectiveness in blocking histamine release. Histamine is released by skin and tissues in response to immune challenge. Ingredients that will block the release of histamine improve the soothing properties of skin care products into which they are incorporated. To perform the test, rat basophil leukemia cells (line RBL-2H3) were grown in Dulbecco's Modified Eagle Medium (DMEM) with 10% heat inactivated fetal calf serum, and seeded in 24 well plates at 2.5×10^5 cells/well. The cells were grown overnight and the culture media was removed from the wells and replaced with 1 ml of PIPES buffer (100 mM NaCl, 5 mM KCl, 0.4 mM MgCl2, 1 mM CaCl2, and 5.6 mM D-glucose), pH 7.2. This buffer is known to reduce the spontaneous release of histamine. Stock solutions were prepared: (1) Positive Control: A 10 mM stock solution of diosmetin in DMSO; (2) Active: Citrus Jabara powder—100 mg/ml in DMSO; (3) Calcium Ionophore: 2 mM in DMSO (Sigma Calcium Ionophore A23187). The Control was added to four separate wells varying the final concentration of the Control in each well to 1, 3, 10, and 30 μM. The Active was added to four other wells in varying percentage concentrations ranging from 0.01%, .05%, 0.1%, and 0.5% w/v in each plate. One well was left untreated with cells only. Another single well contained DMSO at a final concentration of less than 1% v/v. […]
In general terms: In an ELISA, binding on a coated surface is turned into a signal by an enzyme label.

Drawing on patent US20090196942A1, “TOPICAL COMPOSITIONS CONTAINING CITRUS JABARA EXTRACT” (priority 2008, published 2009), this text covers inhibition for 1 compound.

Take `COc1ccc(-c2cc(=O)c3c(O)cc(O)cc3o2)cc1O` [diosmetin]: the inhibition (in general, the percentage by which the read-out fell short of the control) at 30 µM is 85%.
